ChEMBL document CHEMBL4393707, “Synthesis and evaluation of new quinazolin-4(3H)-one derivatives as potent antibacterial agents against multidrug resistant Staphylococcus aureus and Mycobacterium tuberculosis” (Eur J Med Chem, 2019)
In brackets after ≈: the same amount, converted by molar mass.

Experiments:
Format in all cases: functional
Staphylococcus aureus = assay: Antibacterial activity against Staphylococcus aureus ATCC 29213 incubated for 16 to 18 hrs by broth microdilution assay
Klebsiella pneumoniae = assay: Antibacterial activity against Klebsiella pneumoniae ATCC BAA-1705 incubated for 16 to 18 hrs by broth microdilution assay
Escherichia coli = assay: Antibacterial activity against Escherichia coli ATCC 25922 incubated for 16 to 18 hrs by broth microdilution assay
[1] = tested on: Mycobacterium tuberculosis; assay: Antitubercular activity against Mycobacterium tuberculosis H37Rv after 7 days by resazurin dye based assay; conditions: 168 h
Pseudomonas aeruginosa = assay: Antibacterial activity against Pseudomonas aeruginosa ATCC 27853 incubated for 16 to 18 hrs by broth microdilution assay
Acinetobacter baumannii = assay: Antibacterial activity against Acinetobacter baumannii BAA1605 incubated for 16 to 18 hrs by broth microdilution assay

Compound	MIC (Staphylococcus aureus) [µg/mL]	MIC (Klebsiella pneumoniae) [µg/mL]	MIC (Escherichia coli) [µg/mL]	MIC [1] [µg/mL]	MIC (Pseudomonas aeruginosa) [µg/mL]	MIC (Acinetobacter baumannii) [µg/mL]
N#Cc1ccc(/C=C/c2nc3ccccc3c(=O)n2Cc2ccc(F)cc2)cc1	> 64	> 64	> 64	> 64	> 64	> 64
Cc1nc2ccc(OCc3cn(-c4cccc(Cl)c4)nn3)cc2c(=O)n1Cc1ccccc1	> 64	> 64	> 64	> 64	> 64	> 64
NNC(=O)c1ccncc1 [ISONIAZID]	–	–	–	0.03 (≈ 0.219 µM)	–	–
N#Cc1ccc(/C=C/c2nc3cc(-c4ccccc4)ccc3c(=O)n2-c2cccc(Cl)c2)cc1	> 64	> 64	> 64	> 64	> 64	> 64
N#Cc1ccc(/C=C/c2nc3ncccc3c(=O)n2-c2ccc3c(c2)OCCO3)cc1	> 64	> 64	> 64	> 64	> 64	> 64
Cc1nc2cc(-n3cc(COc4ccc5nc(C)n(-c6ccccc6)c(=O)c5c4)nn3)ccc2c(=O)n1-c1ccccc1	> 64	> 64	> 64	> 64	> 64	> 64
N#Cc1ccc(/C=C/c2nc3ncccc3c(=O)n2Cc2ccc(F)cc2)cc1	> 64	> 64	> 64	> 64	> 64	> 64
N#Cc1ccc(/C=C/c2nc3ccccc3c(=O)n2CCc2c[nH]c3ccccc23)cc1	> 64	> 64	> 64	> 64	> 64	> 64
C#CCOc1ccc2nc(/C=C/c3ccc(C#N)cc3)n(CC(=O)OC)c(=O)c2c1	> 64	> 64	> 64	> 64	> 64	> 64
CCC(C)(C)c1ccc(OCc2cn(-c3ccc4c(=O)n(-c5cccc(Cl)c5)c(C)nc4c3)nn2)cc1	> 64	> 64	> 64	> 64	> 64	> 64
Cc1cc(-n2cc(CNc3ccc4c(=O)n(-c5ccccc5)c(C)nc4c3)nn2)cc(C)c1C	> 64	> 64	> 64	> 64	> 64	> 64
N#Cc1ccc(/C=C/c2nc3ncccc3c(=O)n2-c2cccc(C#N)c2)cc1	> 64	> 64	> 64	> 64	> 64	> 64
Cc1cc(-n2cc(CNc3ccc4c(=O)n(-c5ccccc5)c(C)nc4c3)nn2)ccc1[N+](=O)[O-]	> 64	> 64	> 64	> 64	> 64	> 64
CO[C@H]1/C=C/O[C@@]2(C)Oc3c(C)c(O)c4c(O)c(c(/C=N/N5CCN(C)CC5)c(O)c4c3C2=O)NC(=O)/C(C)=C\C=C\[C@H](C)[C@H](O)[C@@H](C)[C@@H](O)[C@@H](C)[C@H](OC(C)=O)[C@@H]1C [RIFAMPIN]	0.015 (≈ 0.0182 µM)	–	–	0.03 (≈ 0.0365 µM)	–	–
GENTAMICIN	0.25	–	–	–	–	–
CN(C)c1ccc(O)c2c1C[C@H]1C[C@H]3[C@H](N(C)C)C(O)=C(C(N)=O)C(=O)[C@@]3(O)C(O)=C1C2=O [MINOCYCLINE]	0.125 (≈ 0.273 µM)	–	–	–	–	–
CC(C)(O/N=C(\C(=O)N[C@@H]1C(=O)N2C(C(=O)[O-])=C(C[n+]3ccccc3)CS[C@H]12)c1csc(N)n1)C(=O)O [CEFTAZIDIME]	16 (≈ 29.3 µM)	–	–	–	–	–
CCCCCCCCCC(=O)N[C@@H](Cc1c[nH]c2ccccc12)C(=O)N[C@H](CC(N)=O)C(=O)N[C@@H](CC(=O)O)C(=O)N[C@@H]1C(=O)NCC(=O)N[C@@H](CCCN)C(=O)N[C@@H](CC(=O)O)C(=O)N[C@H](C)C(=O)N[C@@H](CC(=O)O)C(=O)NCC(=O)N[C@H](CO)C(=O)N[C@@H]([C@H](C)CC(=O)O)C(=O)N[C@@H](CC(=O)c2ccccc2N)C(=O)O[C@@H]1C	0.5 (≈ 0.309 µM)	–	–	–	–	–
